One molecule from article PMC7997578, “Design, Synthesis, Dynamic Docking, Biochemical Characterization, and in Vivo Pharmacokinetics Studies of Novel Topoisomerase II Poisons with Promising Antiproliferative Activity” (Journal of Medicinal Chemistry, 2020) can be followed below.

The nature of this data set: aqueous kinetic solubility. As to conditions: PBS, pH 7.4, PBS pH 7.4, target 250 µM, 2.5% DMSO, 25°C. It counts as physicochemical. How it is done: 1. In vitro m etabolic stabili ty
In vitro microsomial stability. 10mM DMSO stock solution of test compound was pre-incubated at 37 °C for 15min with mouse liver microsomes added 0.1M Tris-HCl buffer (pH 7.4). The final concentration was 4.6µM. After pre -incubation, the co-factors (NADPH, G6P, G6PDH and MgCl2 pre-dissolved in 0.1M Tris-HCl) were added to the incubation mixture and the incubation was continued at 37 °C for 1h. At each time point (0, 5, 15, 30, 60min), 30µL of incubation mixture was diluted with 200µL cold CH 3CN spiked with 200n M of internal standard, followed by centrifugation at 3500g for 15min. The supernatant was further diluted with H2O (1:1) for analysis. The concentration of test compound was quantified by LC/MS-MS on a Waters ACQUITY UPLC/M S TQD system consisting of a TQD (Triple Quadrupole Detector) Mass Spectrometer equipped with an Electrospray Ionization interface. The analyses were run on an ACQUITY UPLC BEH C18 (50x2.1mmID, particle size 1.7µm) with a VanGuard BEH C18 pre -column (5x2.1mmID, particle size 1.7µm) at 40°C, using 0.1% HCOOH in H 2O (A) and 0.1% HCOOH in CH 3CN (B) as mobile phase. Electrospray ionization (ESI) was app lied in positive mode . The percentage of test compound remaining at each time point relative to t=0 was calculated. The half -lives (t½) were determined by an one-phase decay equation using a non -linear regression of compound concentration versus time.
In vitro Plasma Stability. 10mM DMSO stock solution of test compound was diluted 50 -fold with DMSO-H2O (1:1) and incubated at 37 °C for 2 h with mouse plasma added 5% DMSO (pre-heated at 37 °C for 10 min). The final concentration was 2µM. At each time point (0, 5, 15, 30, 60, 120min), 50 µL of incubation mixture was diluted with 200µL cold CH3CN spiked with 200nM of internal standard, followed by centrifugation at 3500g for 20min. The supernatant was further diluted with H2O (1:1) for analysis. The concentration of test compound was quantified by LC/MS-MS on a Waters ACQUITY UPLC/MS TQD system consisting of a TQD (Triple Quadrupole Detector) Mass Spectrometer equipped with an Electrospray Ionization interface. The analyses were run on an ACQUITY UPLC BEH C18 (50x2.1mmID, particle size 1.7µm) with a VanGuard BEH C18 pre - column (5x2.1mmID, particle size 1.7µm) at 40°C, using 0.1% HCOOH in H2O (A) and 0.1% HCOOH in CH3CN (B) as mobile phase. Electrospray ionization (ESI) was applied in positive mode.
The response factors, calculated on the basis of the internal standard peak area, were plotted over time. When possible, response vs. time profiles were fitted with Prism (GraphPad Software, Inc., USA) to estimate compounds half-life in plasma.
2. Aqueous ki netic solu bili ty
The aqueous kinetic solubility was determined from a 10mM DMSO stock solution of test compound in Phosphate Buffered Saline (PBS) at pH 7.4. The study was performed by incubation of an aliquot of 10mM DMSO stock solution in PBS (pH 7.4) at a target concentration of 250µM resulting in a final concentration of 2.5% DMSO. The incubation was carried out under shaking at 25°C for 24h followed by centrifugation at 21.100g for 30min. The supernatant was analyzed by UPLC/MS for the quantification of dissolved compound by UV at a specific wavelength (215nm).
The analyses were performed on a Waters ACQUITY UPLC/MS SQD system consisting of a SQD (Single Quadrupole Detector) Mass Spectrometer equipped with Electrospray Ionization interface.
The analyses were run on an ACQUITY UPLC BEH C18 column (50x2.1mmID, particle size 1.7µm) with a VanGuard BEH C18 pre-column (5x2.1mmID, particle size 1.7µm), using 10mM NH4OAc in H2O at pH 5 adjusted with AcOH (A) and 10mM NH4OAc in MeCN-H2O (95:5) at pH 5 (B) as […]

Consider `O=C(Nc1cccc(OC(F)(F)F)c1)c1c(O)n(-c2ccccc2)c(=S)n(-c2ccccc2)c1=O` [3f, 6-Hydroxy-4-oxo-1,3-diphenyl-2-thioxo-N-(3-(trifluoromethoxy)phenyl)-1,2,3,4-tetrahydropyrimidine-5-carboxamide], for which the solubility (kinetic) (commonly solubility judged after dilution from a stock solution rather than from solid) at 24 h is greater than 200 µM.
